Measured values as given in ChEMBL document CHEMBL1201862, “PubChem BioAssay data set” (2004).
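Step 1: Grow cells in 96-well plates. Step 2: Expose to compound for 48 hours at 5 concentrations. Step 3: Interpolate endpoints linearly; if unreached, use highest concentration. Here, GI50 denotes the concentration required for 50% inhibition of growth.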 Active and inactive are the calls of the source. Cut-off read from the data, not from the text of the source: active = GI50 up to about 1.1 µM and inactive = higher.

Experiments:
Experiment in all cases: growth of human tumour cells (NCI), 48 h
[1] = test system: HOP-92
[2] = test system: TK-10
[3] = test system: BT-549
[4] = test system: 786-0
[5] = test system: OVCAR-3
[6] = test system: MCF7
[7] = test system: OVCAR-4
[8] = test system: COLO 205
[9] = test system: SF-539
[10] = test system: OVCAR-8
[11] = test system: ACHN
[12] = test system: PC-3
[13] = test system: HCT-116
[14] = test system: SK-OV-3
[15] = test system: SW-620
[16] = test system: MDA-N
[17] = test system: NCI/ADR-RES
[18] = test system: U-251
[19] = test system: A498

Measured: GI50

CCCCC1Cc2cc(OC)ccc2-c2nc3cc(OC)ccc3n21.CCCCC1Cc2cc(OC)ccc2-c2nc3ccc(OC)cc3n21 (stereo not drawn)
inactive: [1] 2.06 µM | [2] 18.7 µM | [3] 18.8 µM | [4] 14.7 µM | [5] 15 µM | [6] 17.2 µM | [7] 4.7 µM | [8] 4.9 µM | [9] 16.1 µM | [10] 15.6 µM | [11] 15.2 µM | [12] 11.2 µM | [13] 10.9 µM | [14] 13.5 µM | [15] 14.5 µM | [16] 14 µM | [17] 13.2 µM | [18] 15 µM

CC(O)C1OC(O)C2OC(C)(C)OC12 (stereo not drawn)
inactive: [2] > 100 µM | [3] > 100 µM | [4] > 100 µM | [5] > 100 µM | [6] > 100 µM | [7] > 100 µM | [8] > 100 µM | [9] > 100 µM | [10] > 100 µM | [11] > 100 µM | [12] > 100 µM | [13] > 100 µM | [14] > 100 µM | [15] > 100 µM | [16] > 100 µM | [17] > 100 µM | [18] > 100 µM | [19] > 100 µM

COc1ccc(O[C@H](COCc2ccccc2)C[C@@H]2COC(C)(C)O2)cc1
inactive: [2] > 100 µM | [3] > 100 µM | [4] > 100 µM | [5] > 100 µM | [6] > 100 µM | [7] > 100 µM | [8] > 100 µM | [9] > 100 µM | [10] > 100 µM | [11] > 100 µM | [12] > 100 µM | [13] > 100 µM | [14] > 100 µM | [15] > 100 µM | [16] > 100 µM | [17] > 100 µM | [18] > 100 µM | [19] > 100 µM

Cc1ccc(N(C)S(=O)(=O)c2ccccc2[N+](=O)[O-])cc1
inactive: [2] > 100 µM | [3] 23.3 µM | [4] > 100 µM | [5] 44 µM | [6] 49 µM | [7] 41.7 µM | [8] 57.3 µM | [9] 40.1 µM | [10] 48.6 µM | [11] 58.9 µM | [12] 19 µM | [13] 39.1 µM | [15] 58.3 µM | [16] 34.5 µM | [17] 37.5 µM | [18] 49.2 µM

COc1ccc(/C=C2\N=C(c3ccccc3)N(C3Nc4cc5c(cc4S3)NC(N3C(=O)/C(=C/c4ccc(OC)cc4)N=C3c3ccccc3)S5)C2=O)cc1 (stereo not drawn)
inactive: [1] > 100 µM | [2] > 100 µM | [3] 23.3 µM | [4] 28.1 µM | [5] 43.6 µM | [6] 43.6 µM | [7] 38.3 µM | [9] 11.6 µM | [10] 27.1 µM | [11] 90.4 µM | [12] 83.6 µM | [13] 42.3 µM | [15] 61.5 µM | [16] 37.9 µM | [17] 19.2 µM | [18] 22.9 µM | [19] 40.4 µM

CC[C@@]1(C[C@H]2C[C@@]3(C(=O)OC)c4[nH]c5ccccc5c4CCN3C2=O)COC2(CCCCC2)O1
inactive: [2] 32.8 µM | [3] 47.9 µM | [4] 39.9 µM | [5] 51.2 µM | [6] 25.5 µM | [7] 58.2 µM | [8] 34.4 µM | [9] 35.1 µM | [10] 43.3 µM | [11] 30.9 µM | [12] 15 µM | [13] 30 µM | [14] 69.5 µM | [16] 43.2 µM | [17] 31.8 µM

COc1ccccc1/C=N/Nc1nnc2c3ccccc3c3ncccc3c2n1
inactive: [1] 14.6 µM | [2] 28.6 µM | [3] 41.7 µM | [4] 28.1 µM | [5] 47.2 µM | [6] > 100 µM | [7] 17.8 µM | [8] > 100 µM | [9] 19 µM | [10] 30 µM | [11] 57 µM | [12] > 100 µM | [13] 72.4 µM | [14] 32.8 µM | [15] > 100 µM | [16] > 100 µM | [17] 38.1 µM | [18] 37.3 µM

Cc1nc2ccc(/N=N/N(C)C)cc2[nH]1
inactive: [2] > 100 µM | [3] 86.5 µM | [4] > 100 µM | [5] > 100 µM | [6] > 100 µM | [7] > 100 µM | [8] > 100 µM | [10] > 100 µM | [11] > 100 µM | [12] > 100 µM | [13] > 100 µM | [14] > 100 µM | [15] > 100 µM | [16] > 100 µM | [17] > 100 µM | [18] > 100 µM | [19] > 100 µM

NCC(=O)NC1(c2cc3ccccc3s2)CCCCC1
inactive: [1] 22.2 µM | [2] 36 µM | [3] 54.1 µM | [4] 41.4 µM | [5] > 100 µM | [6] 27.2 µM | [7] 50.8 µM | [8] 17.9 µM | [9] 50.9 µM | [10] > 100 µM | [11] 23.3 µM | [13] 42.7 µM | [14] 67.6 µM | [15] 91 µM | [16] 38.8 µM | [17] 48.5 µM | [19] 31 µM

CS(=O)(=O)Nc1ccc2c(c1)oc(=O)c1ccccc12
inactive: [1] > 100 µM | [3] > 100 µM | [4] > 100 µM | [5] > 100 µM | [6] > 100 µM | [7] > 100 µM | [8] > 100 µM | [9] > 100 µM | [10] > 100 µM | [11] > 100 µM | [12] > 100 µM | [13] > 100 µM | [15] > 100 µM | [16] > 100 µM | [17] > 100 µM | [18] > 100 µM | [19] > 100 µM

O=c1c2cc(S(=O)(=O)Nc3c(Cl)cccc3Cl)ccc2ncn1NS(=O)(=O)c1ccc2ccccc2c1
inactive: [1] 19.6 µM | [2] > 62.5 µM | [3] 22.3 µM | [4] > 62.5 µM | [5] 7.46 µM | [6] > 62.5 µM | [7] > 62.5 µM | [8] 46.6 µM | [9] > 62.5 µM | [10] > 62.5 µM | [11] > 62.5 µM | [12] 12.8 µM | [13] 61.8 µM | [14] > 62.5 µM | [15] > 62.5 µM | [16] 41 µM | [17] > 62.5 µM | [18] > 62.5 µM

O=c1[nH]nc(Cc2ccccc2)n1/N=C/c1ccncc1
inactive: [1] > 100 µM | [2] > 100 µM | [3] 68.9 µM | [4] > 100 µM | [5] > 100 µM | [6] > 100 µM | [7] > 100 µM | [8] > 100 µM | [9] > 100 µM | [10] > 100 µM | [11] > 100 µM | [12] > 100 µM | [13] > 100 µM | [15] > 100 µM | [16] > 100 µM | [17] > 100 µM | [18] > 100 µM | [19] 39 µM

CCOC(=O)c1ccc(N2C(=S)N(C(=O)c3ccccc3)C(=N/c3ccccc3)/C2=N\c2ccccc2)cc1
inactive: [1] 26.4 µM | [2] 62.1 µM | [3] 30.5 µM | [4] 42.2 µM | [5] 25.3 µM | [6] 55.3 µM | [9] 63.2 µM | [10] 24.7 µM | [11] 37.8 µM | [12] 59 µM | [14] 32 µM | [15] > 100 µM | [16] 26.5 µM | [17] > 100 µM | [18] 25.5 µM

CC(C)(C)OC(=O)N/N=C(/N)c1ccccc1
inactive: [2] > 100 µM | [3] > 100 µM | [4] > 100 µM | [5] > 100 µM | [6] > 100 µM | [7] > 100 µM | [8] > 100 µM | [9] > 100 µM | [10] > 100 µM | [11] > 100 µM | [12] > 100 µM | [13] > 100 µM | [14] > 100 µM | [16] > 100 µM | [17] > 100 µM | [18] > 100 µM

CC1C(=O)C23OC[C@@]1(C)C1(O)CC[C@@H](C)[C@]21CC3=O (stereo partly drawn)
inactive: [2] > 100 µM | [3] > 100 µM | [4] > 100 µM | [5] > 100 µM | [6] > 100 µM | [7] > 100 µM | [8] > 100 µM | [9] > 100 µM | [10] > 100 µM | [11] > 100 µM | [12] > 100 µM | [13] > 100 µM | [14] > 100 µM | [15] > 100 µM | [16] > 100 µM | [17] > 100 µM | [18] > 100 µM

O=C(O)c1cncc(C(=O)O)c1
inactive: [2] > 100 µM | [3] > 100 µM | [4] > 100 µM | [5] > 100 µM | [6] > 100 µM | [7] > 100 µM | [8] > 100 µM | [9] > 100 µM | [10] > 100 µM | [11] > 100 µM | [12] > 100 µM | [13] > 100 µM | [14] > 100 µM | [15] > 100 µM | [16] > 100 µM | [17] > 100 µM | [18] > 100 µM | [19] > 100 µM
